≈ marks a conversion by molar mass, not a printed value. Where two headings read alike, the source gives them in different places. Blank lines part the entries; values can stand above or below the compound they belong to.
Key:
[1] = test system: Enterococcus faecium #17501 (vancomycin-resistant clinical isolate); assay: MIC determination in broth microdilution assay; settings: E: Enterococcus faecium #17501 (vancomycin-resistant); NA: no activity
[2] = test system: Staphylococcus intermedius #2357 (clinical isolate); assay: MIC determination in broth microdilution assay; settings: C: Staphylococcus intermedius #2357; NA: no activity
[3] = test system: Staphylococcus aureus ATCC29213; assay: MIC determination in broth microdilution assay; settings: A: Staphylococcus aureus ATCC29213; NA: no activity
[4] = test system: Staphylococcus aureus ATCC33591 (resistant to methicillin); assay: MIC determination in broth microdilution assay; settings: B: Staphylococcus aureus ATCC33591 (resistant to methicillin); NA: no activity
Eschericia coli ESS = assay: MIC determination in broth microdilution assay; settings: H: Eschericia coli ESS; NA: no activity
[5] = test system: Enterococcus faecalis ATCC29212; assay: MIC determination in broth microdilution assay; settings: D: Enterococcus faecalis ATCC29212; NA: no activity
[6] = test system: Streptococcus pneumoniae #998 (clinical isolate); assay: MIC determination in broth microdilution assay; settings: F: Streptococcus pneumoniae #998; NA: no activity
non-fastidious bacteria = assay: Activity against non-fastidious bacteria (panel); settings: pathogenic Gram-positive bacteria
[7] = test system: Eschericia coli ATCC25922; assay: MIC determination in broth microdilution assay; settings: G: Eschericia coli ATCC25922; NA: no activity
[8] = Determination of metabolic stability (liver microsomes); type: in vitro ADME, Wistar rat; settings: for Metabolic turn-over in vitro: rat liver microsomes, 20 μM, 15 min at 37° C.
Protocol: incubations were performed with Wistar rat liver microsomes (0.25 mg/ml) in 2% sodium bicarbonate solution. NADP (0.13 mg/ml), glucose-6-phosphate (0.63 mg/ml) and glucose-6-phosophate dehydrogenase (0.38 units/ml) were used as NADPH generation system and UDPGA (0.48 mg/ml) was added to include the phase II reaction, glucuronic acid conjugation, in the assay. After 5 minutes of pre-incubation the reaction was started by addition of the test article to give a final concentration of 20 μM. Samples were incubated for 15 min at 37° C. and the reactions were terminated by addition of equal volumes of acetonitrile. Blank incubations were performed at the same concentration but without addition of microsomes. Both blank and microsome-containing samples were made in replicats of three. Prior to analysis samples were centrifuged for 10 min. at 3500 rpm, HPLC system:
Initial conditions were 40% mobile phase A (acetonitrile) and 60% mobile phase B (10 mM ammonium acetate pH 9.5). During the first 20 minutes, the mobile phase was changed via a linear gradient to 90% A and 10% B. This was followed by a 5 minutes linear gradient to initial conditions, which were maintained for 5 min. The flow rate was 0.20 ml/min and injection volume 10 μl.

Plasmodium berghei K173 [9] = settings: Plasmodium berghei K173 infected NMRI female mice, multiple oral administrations, FIG. 8
[10] = mice
[11] = test system: Plasmodium falciparum 3D7; assay: Plasmodium falciparum assay (3H-phenylalanine labelling); type: cell-based
[12] = Determination of solubility in phosphate buffer pH 7.4; type: physicochemical; settings: aqueous buffer at pH 7.4
Protocol: Solubility of the compounds was determined by preparing a saturated solution of compound in 0.3 M phosphate buffer (pH 7.4±0.3) in a brown glass tube. The suspensions were rotated slowly for 24 hours. Aliquots were centrifuged for 10 minutes at 14.000 rpm and supernatants were diluted in 40% (v/v) acetonitrile in water prior to HPLC analysis. Concentrations of analytes were quantified against a standard curve and used as term of solubility.
The HPLC-UV method used for the assessment of solubility is the same as used in the in vitro metabolism assay.

Plasmodium berghei K173 [13] = assay: Multiple intra venous administration in Plasmodium berghei K173 infected mice; type: in vivo; settings: Plasmodium berghei K173 infected NMRI female mice, multiple intra venous administrations, FIG. 10
Protocol: The doses stated were administered intra venously as solutions in a suitable vehicle.

[14] = mice; remark: listed apart in the source
[15] = test system: Plasmodium falciparum DD2 (Cq-res); settings: read-out: Plasmodium falciparum IC50
[16] = test system: Plasmodium falciparum K1 (Cq-res); settings: read-out: Plasmodium falciparum IC50
[17] = test system: Plasmodium falciparum 7G8 (Cq-res); settings: read-out: Plasmodium falciparum IC50

Structure (SMILES): Cc1cc(C)cc(-c2ccc(N3CCN(C)CC3)c(/C=C/C(=O)c3cccc(NCCN(C)C)c3)c2)c1 [B101, (E)-1-[3-(2-Dimethylamino-ethylamino)-phenyl]-3-[3′,5′-dimethyl-4-(4-methyl-piperazin-1-yl)-biphenyl-3-yl]-propenone]
- MIC [1]: 4.7 µM (≈ 2.33 µg/mL)
- MIC [2]: 9.4 µM (≈ 4.67 µg/mL)
- MIC [3]: 4.7 µM (≈ 2.33 µg/mL)
- MIC [4]: 4.7 µM (≈ 2.33 µg/mL)
- MIC (Eschericia coli ESS): 4.7 µM (≈ 2.33 µg/mL)
- MIC [5]: 4.7 µM (≈ 2.33 µg/mL)
- MIC [6]: 4.7 µM (≈ 2.33 µg/mL)
- activity against Gram-positive non-fastidious bacteria (non-fastidious bacteria): increased potency
- MIC [7]: 9.4 µM (≈ 4.67 µg/mL)
- Metabolic turn-over in vitro [8]: 3%

Structure (SMILES): Cc1ccccc1-c1cc(/C=C/C(=O)c2ccccc2CN(C)C)cc(N(C)CCN(C)C)c1 [B119, (E)-3-{5-[(2-Dimethylamino-ethyl)-methyl-amino]-2′-methyl-biphenyl-3-yl}-1-(2-dimethylaminomethyl-phenyl)-propenone]
- effect on infection (parasitaemia) (Plasmodium berghei K173 [9]): inhibit the development of the infection
- metabolism [10]: 75%
- metabolism ([8]; rat): 8.6%
- Metabolic turn-over in vitro [8]: 9%

- IC50 ([11]; Plasmodium falciparum 3D7 (Table 2), read-out: IC50): 0.6 µM
- Solubility [12]: 15400 µg/mL (≈ 42.1 mM)
- Metabolic turn-over in vitro [8]: 0%
Structure (SMILES): CN(C)CCN(C)c1cccc(/C=C/C(=O)c2ccccc2CN(C)C)c1 [B074, (E)-3-{3-[(2-Dimethylamino-ethyl)-methyl-amino]-phenyl}-1-(2-dimethylaminomethyl-phenyl)-propenone]
- effect on parasitaemia (Plasmodium berghei K173 [13]): significant decrease in the parasitaemia

Structure (SMILES): COc1ccccc1-c1ccc(/C=C/C(=O)c2ccc(O)c(CN(C)C)c2)c(N2CCN(C)CC2)c1 [B098, (E)-1-(3-Dimethylaminomethyl-4-hydroxy-phenyl)-3-[2′-methoxy-3-(4-methyl-piperazin-1-yl)-biphenyl-4-yl]-propenone]
- bioavailability [14]: 50%

Structure (SMILES): COc1ccc(C(=O)/C=C/c2cc(-c3ccccc3)cc(N3CCN(C)CC3)c2)c(CN(C)C)c1 [B111, (E)-1-(2-Dimethylaminomethyl-4-methoxy-phenyl)-3-[5-(4-methyl-piperazin-1-yl)-biphenyl-3-yl]-propenone]
- IC50 ([11]; 3D7 (Cq-sen) (Table 3), read-out: Plasmodium falciparum IC50): 1.6 µM
- Solubility [12]: 3100 µg/mL (≈ 6.6 mM)
- IC50 [15]: 1 µM
- IC50 [16]: 1 µM
- Metabolic turn-over in vitro [8]: 4%
- IC50 [17]: 1.3 µM

Source: patent US7642367B2, “Diamino-functional chalcones” (Lica Pharmaceuticals A/S, priority 2002, dated 2010)
